Results published in ChEMBL document CHEMBL1138971, “CA224, a non-planar analogue of fascaplysin, inhibits Cdk4 but not Cdk2 and arrests cells at G0/G1 inhibiting pRB phosphorylation” (Bioorg Med Chem Lett, 2006).
Activity calls are given as the source filed them. The rule behind the calls is not given here.

Key:
[1] = target: Cyclin-dependent kinase 2/cyclin A (Homo sapiens, UniProt P24941); test: Inhibition of Cdk2/Cyclin A; assay type: protein-complex assay
LS174T = test: Antiproliferative activity against LS174T cells; assay type: functional, cell-based; conditions: Homo sapiens
[2] = target: Cyclin-dependent kinase 4/cyclin D1 (Homo sapiens, UniProt P11802); test: Inhibition of Cdk4/Cyclin D1; assay type: protein-complex assay
PC-3 = test: Antiproliferative activity against PC3 cells; assay type: functional, cell-based; conditions: Homo sapiens
Calf thymus DNA [3] = test: Ability to displace ethidium bromide from DNA; assay type: nucleic-acid assay
Calu-1 [4] = test: Antiproliferative activity against Calu1 cells; assay type: functional, cell-based; conditions: Homo sapiens
A549 = test: Antiproliferative activity against A549 cells; assay type: functional, cell-based; conditions: Homo sapiens
[5] = target: Cyclin-dependent kinase 4 (Homo sapiens) (UniProt P11802); test: Inhibition of Cdk4-mediated phosphorylation of pRB in Calu1 cells at ser […] residue at 6.2 uM after 24 hrs by Western blot analysis; assay type: functional, cell-based; conditions: Calu-1
[6] = target: T1, DNA topoisomerase 1 (Homo sapiens) (UniProt P11387); test: Inhibition of DNA relaxation catalysed by topoisomerase1 at 100 uM; assay type: functional
T1 sequence (whole entry): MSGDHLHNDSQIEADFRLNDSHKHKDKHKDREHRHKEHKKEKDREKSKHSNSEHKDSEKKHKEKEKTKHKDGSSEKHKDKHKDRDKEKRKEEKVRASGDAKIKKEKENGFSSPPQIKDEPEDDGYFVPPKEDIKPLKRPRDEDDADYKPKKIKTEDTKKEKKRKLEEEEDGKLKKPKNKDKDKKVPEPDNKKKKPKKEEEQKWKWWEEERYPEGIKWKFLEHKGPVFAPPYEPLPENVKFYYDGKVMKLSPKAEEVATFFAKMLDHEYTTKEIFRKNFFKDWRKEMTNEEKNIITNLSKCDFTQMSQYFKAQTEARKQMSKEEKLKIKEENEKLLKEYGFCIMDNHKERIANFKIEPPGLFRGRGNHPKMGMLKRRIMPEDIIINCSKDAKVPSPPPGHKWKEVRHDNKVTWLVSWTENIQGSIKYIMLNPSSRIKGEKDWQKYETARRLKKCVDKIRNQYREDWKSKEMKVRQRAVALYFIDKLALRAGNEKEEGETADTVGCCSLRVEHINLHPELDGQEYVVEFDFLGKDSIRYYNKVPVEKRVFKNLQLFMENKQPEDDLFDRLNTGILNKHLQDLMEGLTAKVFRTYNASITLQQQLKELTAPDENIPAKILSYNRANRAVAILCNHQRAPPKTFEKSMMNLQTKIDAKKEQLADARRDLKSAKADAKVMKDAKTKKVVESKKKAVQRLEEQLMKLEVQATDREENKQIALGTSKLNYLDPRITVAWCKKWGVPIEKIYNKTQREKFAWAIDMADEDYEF

[7] = target: Cyclin-dependent kinase 4 (Homo sapiens) (UniProt P11802); test: Inhibition of Cdk4-mediated phosphorylation of pRB in Calu1 cells at ser […] residue after 24 hrs by Western blot analysis; assay type: functional, cell-based; conditions: Calu-1
Homo sapiens = species: Homo sapiens; test: Selectivity for Cdk4/Cyclin D1 over Cdk2/Cyclin A
[8] = target: Cyclin-dependent kinase 4 (Homo sapiens) (UniProt P11802); test: Inhibition of Cdk4-mediated phosphorylation of pRB in Calu1 cells at ser 795 residue after 24 hrs by Western blot analysis; assay type: functional, cell-based; conditions: Calu-1
[9] = target: T1, DNA topoisomerase 1 (Homo sapiens); test: Inhibition of DNA relaxation catalysed by topoisomerase1 at 10 uM; assay type: functional
[10] = target: Cyclin-dependent kinase 4 (Homo sapiens) (UniProt P11802); test: Inhibition of Cdk4-mediated phosphorylation of pRB in Calu1 cells at ser 780 residue at 6.2 uM after 24 hrs by Western blot analysis; assay type: functional, cell-based; conditions: Calu-1
Calu-1 [11] = test: Cell cycle arrest in serum-starved Calu1 cells by accumulation at G2/M phase after 24 hrs by FACS analysis; assay type: functional, Homo sapiens
Calu-1 [12] = test: Ratio of cell cycle arrest in serum-starved Calu1 cells at G0/G1phase to S phase after 24 hrs by FACS analysis; assay type: functional, Homo sapiens
Calu-1 [13] = test: Cell cycle arrest in serum-starved Calu1 cells by accumulation at S phase after 24 hrs by FACS analysis; assay type: functional, Homo sapiens
[14] = target: Cyclin-dependent kinase 4 (Homo sapiens) (UniProt P11802); test: Inhibition of Cdk4-mediated phosphorylation of pRB in Calu1 cells at ser 795 residue at 6.2 uM after 24 hrs by Western blot analysis; assay type: functional, cell-based; conditions: Calu-1
Calf thymus DNA [15] = test: Ability to displace ethidium bromide from DNA at 100 uM; assay type: nucleic-acid assay
Calu-1 [16] = test: Cell cycle arrest in serum-starved Calu1 cells by accumulation at G0/G1 phase after 24 hrs by FACS analysis; assay type: functional, Homo sapiens
[17] = target: Cyclin-dependent kinase 4 (Homo sapiens) (UniProt P11802); test: Inhibition of Cdk4-mediated phosphorylation of pRB in Calu1 cells at ser 780 residue after 24 hrs by Western blot analysis; assay type: functional, cell-based; conditions: Calu-1

Cyclin-dependent kinase 4 (Homo sapiens), sequence (P11802 whole entry): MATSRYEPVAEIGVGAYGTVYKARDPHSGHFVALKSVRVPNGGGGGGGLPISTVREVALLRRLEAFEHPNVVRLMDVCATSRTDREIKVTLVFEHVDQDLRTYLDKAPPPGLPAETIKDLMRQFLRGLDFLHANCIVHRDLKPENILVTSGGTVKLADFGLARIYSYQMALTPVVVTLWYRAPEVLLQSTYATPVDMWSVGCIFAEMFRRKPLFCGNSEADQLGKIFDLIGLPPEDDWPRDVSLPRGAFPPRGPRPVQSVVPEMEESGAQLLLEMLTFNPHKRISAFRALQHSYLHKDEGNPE
Cyclin-dependent kinase 4/cyclin D1, sequence (P11802 whole entry): as above
Cyclin-dependent kinase 4/cyclin D1, sequence (P24385 whole entry, further chain): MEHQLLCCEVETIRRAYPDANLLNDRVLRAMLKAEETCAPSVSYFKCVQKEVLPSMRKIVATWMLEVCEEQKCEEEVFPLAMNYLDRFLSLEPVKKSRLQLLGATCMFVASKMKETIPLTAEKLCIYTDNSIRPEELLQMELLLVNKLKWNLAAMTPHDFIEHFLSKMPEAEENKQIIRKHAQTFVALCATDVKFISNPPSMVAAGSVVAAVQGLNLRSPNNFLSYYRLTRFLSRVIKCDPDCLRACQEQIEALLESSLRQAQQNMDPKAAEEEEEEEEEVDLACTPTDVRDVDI

Structure (SMILES)	IC50 [1] [µM]	IC50 (LS174T) [µM]	IC50 [2] [µM]	IC50 (PC-3) [µM]	Activity (Calf thymus DNA [3])	IC50 (Calu-1 [4]) [µM]	IC50 (A549) [µM]	further results
Cc1ccccc1C(=O)N(C)CCc1c[nH]c2ccccc12	1130	105	113	92	inactive	141	110	–
CN(CCc1c[nH]c2ccccc12)C(=O)c1ccccc1Br	584	76	95	59	inactive	122	95	–
CN(CCc1c[nH]c2ccccc12)C(=O)c1ccc(F)cc1	850	87	59	94	inactive	141	102	–
CN(CCc1c[nH]c2ccccc12)C(=O)c1cccc(Br)c1	635	89	74	66	inactive	144	91	–
COc1cccc(C(=O)N(C)CCc2c[nH]c3ccccc23)c1	938	109	81	85	inactive	139	95	–
COc1ccccc1C(=O)N(C)CCc1c[nH]c2ccccc12	849	106	79	89	inactive	146	103	–
CN(CCc1c[nH]c2ccccc12)C(=O)c1ccc(-c2ccccc2)cc1	521	3.5	6.2	6.2	inactive	11.5	3.5	Activity [5]: Active; Activity [6]: inactive; Activity [7]: Active; Selectivity ratio (Homo sapiens): 100; Activity [8]: Active; Activity [9]: inactive; Activity [10]: Active; Activity (Calu-1 [11]): 30%; Ratio (Calu-1 [12]): 16; Activity (Calu-1 [13]): 4%; Activity [14]: Active; Activity (Calf thymus DNA [15]): < 5%; Activity (Calu-1 [16]): 64%; Activity [17]: Active
Cc1cccc(C(=O)N(C)CCc2c[nH]c3ccccc23)c1	830	88	78	81	inactive	136	96	–
CN(CCc1c[nH]c2ccccc12)C(=O)c1ccc(Cl)cc1	731	42	38	47	inactive	78	27	–
